19 compounds from patent US11331314B2, “Amine substituted triazole derivatives and uses thereof” (Bayer Pharma Aktiengesellschaft, priority 2017, dated 2022) can be followed below.

Structures are written as SMILES.

For one assay, the target named is human V1a receptor (Homo sapiens, UniProt P37288). Description: Cellular in vitro assay for determining vasopressin receptor activity, V1a receptor cell line (photoprotein luminescence). Type of assay: cell-based. As to conditions: for IC50: CHO cell line transfected with the human V1a receptor, agonist [Arg8]-vasopressin at EC50 concentration, read-out: IC50 hV1a; for ratio IC50 hV2/hV1a: selectivity ratio of the cellular IC50 values. Summed up:
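CHO K1 cells stably expressing human V1a receptor with aequorin photoprotein, loaded overnight with coelenterazine. Compounds preincubated 10 min at various concentrations, then challenged with [Arg^8]-vasopressin at EC50 concentration. Calcium-driven luminescence read immediately; IC50 values derived.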

For a further assay, the target named is T1, human V2 receptor (Homo sapiens, UniProt P30518).
T1 construct: expressed in transfected cells; host or cells: CHO K1 (ATCC) expressing firefly luciferase under a CRE-responsive promoter
Description: Cellular in vitro assay for determining vasopressin receptor activity, V2 receptor cell line (CRE-luciferase). The class given is cell-based. As to conditions: CHO cell line transfected with the human V2 receptor; agonist [Arg8]-vasopressin at EC50 concentration; read-out: IC50 hV2.

Sequence of human V1a receptor (P37288 whole entry): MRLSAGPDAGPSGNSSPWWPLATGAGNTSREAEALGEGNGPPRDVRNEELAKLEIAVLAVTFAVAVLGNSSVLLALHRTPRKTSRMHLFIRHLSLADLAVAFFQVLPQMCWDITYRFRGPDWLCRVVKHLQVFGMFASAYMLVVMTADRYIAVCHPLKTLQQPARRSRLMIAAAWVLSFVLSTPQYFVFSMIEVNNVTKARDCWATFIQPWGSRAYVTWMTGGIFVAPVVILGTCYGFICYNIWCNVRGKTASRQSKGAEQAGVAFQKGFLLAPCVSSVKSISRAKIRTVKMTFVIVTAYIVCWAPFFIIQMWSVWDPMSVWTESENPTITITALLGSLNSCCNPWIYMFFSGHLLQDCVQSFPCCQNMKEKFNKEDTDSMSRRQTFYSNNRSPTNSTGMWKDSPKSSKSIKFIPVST
T1 sequence (P30518 whole entry): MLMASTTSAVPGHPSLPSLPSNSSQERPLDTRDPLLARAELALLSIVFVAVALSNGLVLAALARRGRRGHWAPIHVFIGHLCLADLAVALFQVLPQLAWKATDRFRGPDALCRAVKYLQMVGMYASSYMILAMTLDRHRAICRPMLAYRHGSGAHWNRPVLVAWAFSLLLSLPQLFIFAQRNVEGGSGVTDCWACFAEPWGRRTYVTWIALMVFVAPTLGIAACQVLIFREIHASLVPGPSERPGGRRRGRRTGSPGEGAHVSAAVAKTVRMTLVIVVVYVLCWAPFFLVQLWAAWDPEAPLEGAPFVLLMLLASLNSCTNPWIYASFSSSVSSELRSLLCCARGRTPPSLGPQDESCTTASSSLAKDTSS

For `O=C1CN(c2nc(Cn3nc(-c4ccc(Cl)cc4)n(C[C@H](O)C(F)(F)F)c3=O)nn2-c2ccccc2Cl)CCN1` [Example 48, 4-[1-(2-Chlorophenyl)-3-({3-(4-chlorophenyl)-5-oxo-4-[(2S)-3,3,3-trifluoro-2-hydroxypropyl]-4,5-dihydro-1H-1,2,4-triazol-1-yl}methyl)-1H-1,2,4-triazol-5-yl]piperazin-2-one], the IC50 – broadly, the point on the concentration scale where inhibition reaches its midpoint – came to 0.64 nM on human V1a receptor and 10.4 nM at human V2 receptor. The “ratio IC50 hV2/hV1a” value on human V1a receptor is 16.3.
With `CC1(O)CCN(c2nc(Cn3nc(-c4ccc(Cl)cc4)n(C[C@H](O)C(F)(F)F)c3=O)nn2-c2ccccc2Cl)C1` (mixture of isomers) [Example 29, 5-(4-Chlorophenyl)-2-({1-(2-chlorophenyl)-5-[3-hydroxy-3-methylpyrrolidin-1-yl]-1H-1,2,4-triazol-3-yl}methyl)-4-[(2S)-3,3,3-trifluoro-2-hydroxypropyl]-2,4-dihydro-3H-1,2,4-triazol-3-one], on human V1a receptor, the IC50 is 1.05 nM and the “ratio IC50 hV2/hV1a” value is 4.7. Moreover, the IC50 at human V2 receptor was 4.9 nM.
For `COC1CCN(c2nc(Cn3nc(-c4ccc(Cl)cc4)n(C[C@H](O)C(F)(F)F)c3=O)nn2-c2ccccc2Cl)C1` (mixture of isomers) [Example 42, 5-(4-Chlorophenyl)-2-({1-(2-chlorophenyl)-5-[3-methoxypyrrolidin-1-yl]-1H-1,2,4-triazol-3-yl}methyl)-4-[(2S)-3,3,3-trifluoro-2-hydroxypropyl]-2,4-dihydro-3H-1,2,4-triazol-3-one], in that order: 0.48 nM, 4.0 and 1.9 nM.
For `O=C1CC(Nc2nc(Cn3nc(-c4ccc(Cl)cc4)n(C[C@H](O)C(F)(F)F)c3=O)nn2-c2ccccc2Cl)CN1` (mixture of isomers) [Example 69, 5-(4-Chlorophenyl)-2-{[1-(2-chlorophenyl)-5-{[5-oxopyrrolidin-3-yl]amino}-1H-1,2,4-triazol-3-yl]methyl}-4-[(2S)-3,3,3-trifluoro-2-hydroxypropyl]-2,4-dihydro-3H-1,2,4-triazol-3-one], in that order: 1.05 nM, 4.2 and 4.35 nM.
For `O=C1CCC(CNc2nc(Cn3nc(-c4ccc(Cl)cc4)n(C[C@H](O)C(F)(F)F)c3=O)nn2-c2ccccc2Cl)N1` (single isomer, unassigned) [Example 64], in that order: 0.8 nM, 5.5 and 4.35 nM.
Take `O=c1n(Cc2nc(N3CCNC(C(F)(F)F)C3)n(-c3ccccc3Cl)n2)nc(-c2ccc(Cl)cc2)n1C[C@H](O)C(F)(F)F` (mixture of isomers) [Example 66]: the values for the IC50 on human V1a receptor and at human V2 receptor were 0.37 nM and 6.9 nM, respectively. The “ratio IC50 hV2/hV1a” value at human V1a receptor was 18.9.
For the compound `O=c1n(Cc2nc(N3CCCC3)n(-c3cccc(F)c3)n2)nc(-c2ccc(Cl)cc2)n1C[C@H](O)C(F)(F)F` [Example 88, 5-(4-Chlorophenyl)-2-{[1-(3-fluorophenyl)-5-(pyrrolidin-1-yl)-1H-1,2,4-triazol-3-yl]methyl}-4-[(2S)-3,3,3-trifluoro-2-hydroxypropyl]-2,4-dihydro-3H-1,2,4-triazol-3-one], on human V1a receptor, the IC50 was 5.59 nM and the “ratio IC50 hV2/hV1a” value is 2.1. At human V2 receptor, the half-inhibitory concentration (IC50) was 11.9 nM.
For `O=c1n(Cc2nc(NCC(O)C(F)(F)F)n(-c3ccccc3Cl)n2)nc(-c2ccc(Cl)cc2)n1C[C@H](O)C(F)(F)F` (mixture of isomers) [Example 53, 5-(4-Chlorophenyl)-2-{[1-(2-chlorophenyl)-5-{[3,3,3-trifluoro-2-hydroxypropyl]amino}-1H-1,2,4-triazol-3-yl]methyl}-4-[(2S)-3,3,3-trifluoro-2-hydroxypropyl]-2,4-dihydro-3H-1,2,4-triazol-3-one], in that order: 0.52 nM, 3.6 and 1.85 nM.
For `O=c1n(Cc2nc(N3CCS(=O)(=O)CC3)n(-c3ccccc3Cl)n2)nc(-c2ccc(Cl)cc2)n1C[C@H](O)C(F)(F)F` [Example 55, 5-(4-Chlorophenyl)-2-{[1-(2-chlorophenyl)-5-(1,1-dioxidothiomorpholin-4-yl)-1H-1,2,4-triazol-3-yl]methyl}-4-[(2S)-3,3,3-trifluoro-2-hydroxypropyl]-2,4-dihydro-3H-1,2,4-triazol-3-one], in that order: 0.39 nM, 67.1 and 26 nM.
For `O=c1n(Cc2nc(NCCO)n(-c3ccccc3Cl)n2)nc(-c2ccc(Cl)cc2)n1C[C@H](O)C(F)(F)F` [Example 80, 5-(4-Chlorophenyl)-2-({1-(2-chlorophenyl)-5-[(2-hydroxyethyl)amino]-1H-1,2,4-triazol-3-yl}methyl)-4-[(2S)-3,3,3-trifluoro-2-hydroxypropyl]-2,4-dihydro-3H-1,2,4-triazol-3-one], in that order: 0.36 nM, 7.8 and 2.79 nM.
Turning to `O=c1n(Cc2nc(N3CCC(O)(C(F)(F)F)CC3)n(-c3ccccc3Cl)n2)nc(-c2ccc(Cl)cc2)n1C[C@H](O)C(F)(F)F` [Example 28, 5-(4-Chlorophenyl)-2-({1-(2-chlorophenyl)-5-[4-hydroxy-4-(trifluoromethyl)piperidin-1-yl]-1H-1,2,4-triazol-3-yl}methyl)-4-[(2S)-3,3,3-trifluoro-2-hydroxypropyl]-2,4-dihydro-3H-1,2,4-triazol-3-one], at human V1a receptor, the IC50 stood at 0.66 nM and the “ratio IC50 hV2/hV1a” value came to 15.3. For the same compound, the IC50 on human V2 receptor is 10 nM.
The like results for `O=c1n(Cc2nc(NCC3(O)CCCNCC3)n(-c3ccccc3Cl)n2)nc(-c2ccc(Cl)cc2)n1C[C@H](O)C(F)(F)F` (mixture of isomers) [Example 20] were, in that order, 0.42 nM, 28.6 and 12 nM.
With `O=c1n(Cc2nc(NCC3(O)CCNCC3)n(-c3ccccc3Cl)n2)nc(-c2ccc(Cl)cc2)n1C[C@H](O)C(F)(F)F` [Example 22, 5-(4-Chlorophenyl)-2-{[1-(2-chlorophenyl)-5-{[(4-hydroxypiperidin-4-yl)methyl]amino}-1H-1,2,4-triazol-3-yl]methyl}-4-[(2S)-3,3,3-trifluoro-2-hydroxypropyl]-2,4-dihydro-3H-1,2,4-triazol-3-one], the IC50 was determined as 0.46 nM on human V1a receptor and 12 nM at human V2 receptor. Moreover, at human V1a receptor, the “ratio IC50 hV2/hV1a” value was found to be 26.1.
As to `CC(C)(N)CNc1nc(Cn2nc(-c3ccc(Cl)cc3)n(C[C@H](O)C(F)(F)F)c2=O)nn1-c1ccccn1` [Example 93, 2-({5-[(2-Amino-2-methylpropyl)amino]-1-(pyridin-2-yl)-1H-1,2,4-triazol-3-yl}methyl)-5-(4-chlorophenyl)-4-[(2S)-3,3,3-trifluoro-2-hydroxypropyl]-2,4-dihydro-3H-1,2,4-triazol-3-one], at human V1a receptor, the IC50 was 28 nM and the “ratio IC50 hV2/hV1a” value is recorded as 112.5. For the same compound, the IC50 on human V2 receptor came to 3150 nM.
For `CC(=O)N1CCN(c2nc(Cn3nc(-c4ccc(Cl)cc4)n(C[C@H](O)C(F)(F)F)c3=O)nn2-c2ccccc2Cl)CC1` [Example 75, 2-{[5-(4-Acetylpiperazin-1-yl)-1-(2-chlorophenyl)-1H-1,2,4-triazol-3-yl]methyl}-5-(4-chlorophenyl)-4-[(2S)-3,3,3-trifluoro-2-hydroxypropyl]-2,4-dihydro-3H-1,2,4-triazol-3-one], in that order: 0.81 nM, 11.0 and 8.9 nM.
For `O=c1n(Cc2nc(N3CCOCC3)n(-c3ccccc3Cl)n2)nc(-c2ccc(Cl)cc2)n1C[C@H](O)C(F)(F)F` [Example 83, 5-(4-Chlorophenyl)-2-{[1-(2-chlorophenyl)-5-(morpholin-4-yl)-1H-1,2,4-triazol-3-yl]methyl}-4-[(2S)-3,3,3-trifluoro-2-hydroxypropyl]-2,4-dihydro-3H-1,2,4-triazol-3-one], in that order: 0.56 nM, 25.7 and 14.3 nM.
The like results for `CC(C)(O)CNc1nc(Cn2nc(-c3ccc(Cl)cc3)n(C[C@H](O)C(F)(F)F)c2=O)nn1-c1ccccc1Cl` [Example 82, 5-(4-Chlorophenyl)-2-({1-(2-chlorophenyl)-5-[(2-hydroxy-2-methylpropyl)amino]-1H-1,2,4-triazol-3-yl}methyl)-4-[(2S)-3,3,3-trifluoro-2-hydroxypropyl]-2,4-dihydro-3H-1,2,4-triazol-3-one] were, in that order, 0.86 nM, 7.5 and 6.47 nM.
For the compound `O=c1n(Cc2nc(N3CCOC(C(F)(F)F)C3)n(CCC(F)(F)F)n2)nc(-c2ccc(Cl)cc2)n1C[C@H](O)C(F)(F)F` (single isomer, unassigned) [Example 105], the IC50 turned out to be 22 nM on human V1a receptor and 180 nM at human V2 receptor. Moreover, at human V1a receptor, the “ratio IC50 hV2/hV1a” value is 8.2.
The like results for `CC(C)(O)CNc1nc(Cn2nc(-c3ccc(Cl)cc3)n(C[C@H](O)C(F)(F)F)c2=O)nn1CCC(F)(F)F` [Example 110, 5-(4-Chlorophenyl)-2-({5-[(2-hydroxy-2-methylpropyl)amino]-1-(3,3,3-trifluoropropyl)-1H-1,2,4-triazol-3-yl}methyl)-4-[(2S)-3,3,3-trifluoro-2-hydroxypropyl]-2,4-dihydro-3H-1,2,4-triazol-3-one] were, in that order, 1.4 nM, 170 nM and 121.4.
